Measured values taken from article PMC12586182 (Frontiers in Oncology, 2025).

Tests used:
Test in all cases: Kinase panel profiling at 1 µmol/L (mobility shift assay, Carna)
Assay type in all cases: biochemical
Details in all cases: 1 µmol/L of BTK inhibitor
[1] = target: T1, EPHB2 (Homo sapiens, UniProt P29323)
T1 construct: purchased Carna Biosciences
T1 sequence (P29323 19-1055): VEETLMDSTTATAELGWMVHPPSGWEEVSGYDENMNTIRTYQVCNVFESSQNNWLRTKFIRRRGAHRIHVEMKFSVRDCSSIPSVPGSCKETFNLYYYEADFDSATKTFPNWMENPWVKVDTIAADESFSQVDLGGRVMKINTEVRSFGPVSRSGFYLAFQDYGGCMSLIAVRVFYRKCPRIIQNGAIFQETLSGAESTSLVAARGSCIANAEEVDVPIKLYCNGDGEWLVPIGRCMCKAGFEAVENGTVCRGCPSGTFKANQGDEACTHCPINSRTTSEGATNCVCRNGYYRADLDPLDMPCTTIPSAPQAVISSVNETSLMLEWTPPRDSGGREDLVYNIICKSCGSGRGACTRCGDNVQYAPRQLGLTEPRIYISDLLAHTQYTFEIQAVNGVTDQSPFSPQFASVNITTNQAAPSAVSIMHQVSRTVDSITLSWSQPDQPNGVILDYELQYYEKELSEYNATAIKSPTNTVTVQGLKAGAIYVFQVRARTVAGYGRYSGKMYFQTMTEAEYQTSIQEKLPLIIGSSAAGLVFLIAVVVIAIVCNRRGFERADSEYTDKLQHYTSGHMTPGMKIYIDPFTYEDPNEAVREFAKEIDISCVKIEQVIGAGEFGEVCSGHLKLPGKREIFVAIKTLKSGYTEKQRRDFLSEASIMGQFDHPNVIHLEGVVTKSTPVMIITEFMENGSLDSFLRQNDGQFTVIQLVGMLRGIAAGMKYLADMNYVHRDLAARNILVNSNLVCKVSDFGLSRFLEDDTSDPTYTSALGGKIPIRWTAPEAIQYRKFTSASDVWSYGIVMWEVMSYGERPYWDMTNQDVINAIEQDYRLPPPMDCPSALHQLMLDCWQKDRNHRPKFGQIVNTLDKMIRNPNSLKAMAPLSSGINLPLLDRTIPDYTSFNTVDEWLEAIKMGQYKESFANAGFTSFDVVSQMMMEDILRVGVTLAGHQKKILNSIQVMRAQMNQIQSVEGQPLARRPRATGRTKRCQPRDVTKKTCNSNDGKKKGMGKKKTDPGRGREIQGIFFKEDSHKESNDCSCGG

[2] = target: T2, DCAMKL2 (Homo sapiens, UniProt Q8N568)
T2 construct: purchased Carna Biosciences
T2 sequence (Q8N568 1-766): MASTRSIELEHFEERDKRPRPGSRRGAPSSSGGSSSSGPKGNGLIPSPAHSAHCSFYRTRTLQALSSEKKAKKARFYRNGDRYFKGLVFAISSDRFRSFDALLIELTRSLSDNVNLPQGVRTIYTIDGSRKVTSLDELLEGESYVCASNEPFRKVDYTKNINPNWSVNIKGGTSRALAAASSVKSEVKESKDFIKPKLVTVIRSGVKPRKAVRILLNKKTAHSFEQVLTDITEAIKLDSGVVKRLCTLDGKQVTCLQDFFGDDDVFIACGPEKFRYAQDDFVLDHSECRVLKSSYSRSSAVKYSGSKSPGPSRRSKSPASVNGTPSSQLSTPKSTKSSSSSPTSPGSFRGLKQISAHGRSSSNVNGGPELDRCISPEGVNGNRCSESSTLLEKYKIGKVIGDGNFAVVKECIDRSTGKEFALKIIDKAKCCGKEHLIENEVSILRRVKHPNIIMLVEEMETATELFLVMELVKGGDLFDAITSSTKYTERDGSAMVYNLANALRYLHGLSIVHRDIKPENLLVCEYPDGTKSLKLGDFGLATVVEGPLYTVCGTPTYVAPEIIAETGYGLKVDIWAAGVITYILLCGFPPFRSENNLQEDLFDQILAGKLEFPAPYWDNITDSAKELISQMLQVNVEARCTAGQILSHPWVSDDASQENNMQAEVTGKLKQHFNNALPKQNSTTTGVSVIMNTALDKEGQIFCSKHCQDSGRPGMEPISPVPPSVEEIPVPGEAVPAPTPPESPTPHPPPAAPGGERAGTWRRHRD

[3] = target: T3, DDR2 (Homo sapiens, UniProt Q16832)
T3 construct: purchased Carna Biosciences
T3 sequence (Q16832 22-855): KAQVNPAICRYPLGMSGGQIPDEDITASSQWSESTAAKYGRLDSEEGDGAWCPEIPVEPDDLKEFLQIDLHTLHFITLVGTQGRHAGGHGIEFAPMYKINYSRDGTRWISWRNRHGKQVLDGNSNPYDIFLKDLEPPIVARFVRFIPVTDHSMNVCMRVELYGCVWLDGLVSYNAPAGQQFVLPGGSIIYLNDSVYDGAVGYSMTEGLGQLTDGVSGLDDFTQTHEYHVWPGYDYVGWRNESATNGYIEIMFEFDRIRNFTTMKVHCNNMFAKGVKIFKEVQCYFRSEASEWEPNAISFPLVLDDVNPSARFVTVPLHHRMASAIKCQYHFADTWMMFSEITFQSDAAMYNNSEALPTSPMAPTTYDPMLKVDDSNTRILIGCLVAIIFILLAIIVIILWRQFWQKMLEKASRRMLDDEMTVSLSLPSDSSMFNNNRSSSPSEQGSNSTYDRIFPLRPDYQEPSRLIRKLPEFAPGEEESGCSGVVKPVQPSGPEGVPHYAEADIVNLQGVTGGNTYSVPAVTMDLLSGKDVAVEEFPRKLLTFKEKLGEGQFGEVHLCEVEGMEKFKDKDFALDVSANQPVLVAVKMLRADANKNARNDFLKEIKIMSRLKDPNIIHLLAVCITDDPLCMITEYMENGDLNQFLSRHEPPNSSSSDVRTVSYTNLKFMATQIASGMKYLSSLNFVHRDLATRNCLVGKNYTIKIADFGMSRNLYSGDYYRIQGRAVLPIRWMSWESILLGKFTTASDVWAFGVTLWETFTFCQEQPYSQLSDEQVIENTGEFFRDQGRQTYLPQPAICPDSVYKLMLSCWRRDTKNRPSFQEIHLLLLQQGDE

Structure (SMILES)	Percentage inhibition of kinase enzyme activity [1] [%]	Percentage inhibition of kinase enzyme activity [2] [%]	Percentage inhibition of kinase enzyme activity [3] [%]
CC#CC(=O)N1CCC[C@H]1c1nc(-c2ccc(C(=O)Nc3ccccn3)cc2)c2c(N)nccn12 [acalabrutinib]	-0.11	4.63	6.23
C=CC(=O)N1CCC[C@@H](n2nc(-c3ccc(Oc4ccccc4)cc3)c3c(N)ncnc32)C1 [ibrutinib]	27.83	-9.45	17.34
O=C(c1ccc(Oc2ccccc2)cc1Cl)c1c[nH]c2ncnc(N[C@@H]3CC[C@@H](CO)OC3)c12 [nemtabrutinib]	48.93	-1.82	93.92
C=CC(=O)N1CCC([C@@H]2CCNc3c(C(N)=O)c(-c4ccc(Oc5ccccc5)cc4)nn32)CC1 [zanubrutinib]	-1.32	–	–
COc1ccc(F)cc1C(=O)NCc1ccc(-c2nn([C@@H](C)C(F)(F)F)c(N)c2C(N)=O)cc1 [pirtobrutinib]	6.14	0.08	9.58
